{
  "source": "patent US9095594B2",
  "about": "“Pharmaceutical compositions comprising beta-lactam antibiotic, sulbactam and beta-lactamase inhibitor” (Wockhardt Ltd., priority 2011, dated 2015)",
  "test_in_all_cases": "Agar dilution MIC (CLSI)",
  "format_in_all_cases": "cell-based",
  "details_in_all_cases": "for MIC: Acinetobacter baumannii",
  "key": {"[1]": {"test_system": "A. baumanii S-4 (ESBL strain)", "method": "(§1) In a typical study, overnight grown bacterial cultures were diluted appropriately and inoculated on the agar media containing doubling dilutions of the antibiotic. Observation for growth or no growth was performed after 16-20 hours of incubation at 35±2° C. in ambient air."}, "[2]": {"test_system": "A. baumanii S-8 (ESBL strain)", "method": "as §1"}, "[3]": {"test_system": "A. baumanii S-3 (ESBL strain)", "method": "as §1"}, "[4]": {"test_system": "A. baumanii 13304 (ESBL strain)", "method": "as §1"}, "[5]": {"test_system": "A. baumanii S-10 (ESBL strain)", "method": "as §1"}, "[6]": {"test_system": "A. baumanii S-15 (ESBL strain)", "method": "as §1"}, "[7]": {"test_system": "A. baumanii 13301 (ESBL strain)", "method": "as §1"}, "[8]": {"test_system": "A. baumanii 13305 (ESBL strain)", "method": "as §1"}},
  "note": "Structures can show the parent of a compound that is named as a salt. Where two headings read alike, the source gives them in different places.",
  "data": [
    {"molecule": "CC1(C)[C@H](C(=O)O)N2C(=O)C[C@H]2S1(=O)=O", "note": "[Sulbactam, sulbactam]", "values": [
      {"measurement": "MIC", "setting": "[1]", "result": "> 32", "unit": "µg/mL"},
      {"measurement": "MIC", "setting": "[2]", "result": "> 32", "unit": "µg/mL"},
      {"measurement": "MIC", "setting": "[3]", "result": "> 32", "unit": "µg/mL"},
      {"measurement": "MIC", "setting": "[4]", "result": "> 32", "unit": "µg/mL"},
      {"measurement": "MIC", "setting": "[5]", "result": "> 32", "unit": "µg/mL"},
      {"measurement": "MIC", "setting": "[6]", "result": "> 32", "unit": "µg/mL"},
      {"measurement": "MIC", "setting": "[7]", "result": "> 32", "unit": "µg/mL"},
      {"measurement": "MIC", "setting": "[8]", "result": 16, "unit": "µg/mL"}
    ]},
    {"molecule": "NC(=O)[C@@H]1CC[C@@H]2CN1C(=O)N2OS(=O)(=O)O", "note": "[NXL-104, sodium salt of trans-7-oxo-6-(sulphooxy)-1,6-diazabicyclo-[3.2.1]-octane-2-carboxamide]", "values": [
      {"measurement": "MIC of NXL-104 in presence of Sulbactam (4 mcg/ml)", "setting": "[1]; A. baumanii S-4, Sulbactam 4 mcg/ml", "result": 16, "unit": "µg/mL"},
      {"measurement": "MIC", "setting": "[1]; alone, A. baumanii S-4, read-out: MIC", "result": "> 64", "unit": "µg/mL"},
      {"measurement": "MIC of NXL-104 in presence of Sulbactam (4 mcg/ml)", "setting": "[2]; A. baumanii S-8, Sulbactam 4 mcg/ml", "result": 16, "unit": "µg/mL"},
      {"measurement": "MIC", "setting": "[2]; alone, A. baumanii S-8, read-out: MIC", "result": "> 64", "unit": "µg/mL"},
      {"measurement": "MIC of NXL-104 in presence of Sulbactam (4 mcg/ml)", "setting": "[3]; A. baumanii S-3, Sulbactam 4 mcg/ml", "result": 16, "unit": "µg/mL"},
      {"measurement": "MIC", "setting": "[3]; alone, A. baumanii S-3, read-out: MIC", "result": "> 64", "unit": "µg/mL"},
      {"measurement": "MIC of NXL-104 in presence of Sulbactam (4 mcg/ml)", "setting": "[4]; A. baumanii 13304, Sulbactam 4 mcg/ml", "result": 2, "unit": "µg/mL"},
      {"measurement": "MIC", "setting": "[4]; alone, A. baumanii 13304, read-out: MIC", "result": "> 64", "unit": "µg/mL"},
      {"measurement": "MIC of NXL-104 in presence of Sulbactam (4 mcg/ml)", "setting": "[5]; A. baumanii S-10, Sulbactam 4 mcg/ml", "result": 16, "unit": "µg/mL"},
      {"measurement": "MIC", "setting": "[5]; alone, A. baumanii S-10, read-out: MIC", "result": "> 64", "unit": "µg/mL"},
      {"measurement": "MIC of NXL-104 in presence of Sulbactam (4 mcg/ml)", "setting": "[6]; A. baumanii S-15, Sulbactam 4 mcg/ml", "result": 16, "unit": "µg/mL"},
      {"measurement": "MIC", "setting": "[6]; alone, A. baumanii S-15, read-out: MIC", "result": "> 64", "unit": "µg/mL"},
      {"measurement": "MIC of NXL-104 in presence of Sulbactam (4 mcg/ml)", "setting": "[7]; A. baumanii 13301, Sulbactam 4 mcg/ml", "result": 2, "unit": "µg/mL"},
      {"measurement": "MIC", "setting": "[7]; alone, A. baumanii 13301, read-out: MIC", "result": "> 64", "unit": "µg/mL"},
      {"measurement": "MIC of NXL-104 in presence of Sulbactam (4 mcg/ml)", "setting": "[8]; A. baumanii 13305, Sulbactam 4 mcg/ml", "result": 2, "unit": "µg/mL"},
      {"measurement": "MIC", "setting": "[8]; alone, A. baumanii 13305, read-out: MIC", "result": "> 64", "unit": "µg/mL"}
    ]}
  ]
}
